These results are taken from ChEMBL document CHEMBL1201862, “PubChem BioAssay data set” (2004).

Some test systems named below: MOLT-4; SK-OV-3; Malme-3M; DU-145; COLO 205; A498; LOX IMVI; SNB-75; NCI-H460; CCRF-CEM; OVCAR-3; MCF7; M14; K562; OVCAR-8; SR; NCI-H23; SK-MEL-28; HCT-116.
What all share (assay): DTP human tumour cell line panel, 48 h

The structures appear in SMILES notation. “And” between values parts separate entries of the source, which are not always exact repeats. Equal entries are not always repeated.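 Results reflect a 48-hour exposure of cells in 96-well plates to compound at five concentrations. At the GI50, growth is halved.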 The source made the active and inactive calls. No stated cut-off is given here; in the data, active = GI50 up to about 1.1 µM and inactive = higher.

What is called GI50 is the concentration giving 50% growth inhibition. For the compound `CC(N/N=C(\S)N1CCN(c2ccccn2)CC1)c1nccc2ccccc12` (centres undefined), the GI50 was < 0.01 µM (active) in the assay with MOLT-4; 0.241 µM (active) in the assay on SK-OV-3; 1.03 µM (active) in the assay with Malme-3M; 1.32 µM (inactive) with DU-145; 0.119 µM (active) in the assay with COLO 205; 5.71 µM (inactive) in the assay with A498. Further, the GI50 was 0.804 µM (active) in the assay with LOX IMVI; 6.43 µM (inactive) with SNB-75; 0.593 µM (active) in the assay on NCI-H460; < 0.01 µM (active) in the assay with CCRF-CEM; < 0.0121 µM (active) in the assay on OVCAR-3; 1.07 µM (active) with MCF7. In addition, the GI50 with M14 was 0.045 µM (active); in the assay with K562, < 0.01 µM (active); in the assay with OVCAR-8, 0.104 µM (active); in the assay on SR, < 0.0218 µM (active); in the assay with NCI-H23 it was 1.79 µM (inactive); in the assay with SK-MEL-28, 2.61 µM (inactive).
In the case of `CC(C)C(C)/C=C\C(C)C1CCC2C3=CC=C4CC(O)CCC4(C)C3CCC21C` (centres undefined), the GI50 with MOLT-4 was 17.7 µM (inactive); in the assay on SK-OV-3 it was > 100 µM (inactive); in the assay with Malme-3M it was > 34.7 µM (inactive); in the assay on DU-145, 51.6 µM (inactive); in the assay with COLO 205, 43.9 µM (inactive); in the assay on A498, > 85.5 µM (inactive). Moreover, the GI50 with LOX IMVI is > 42.7 µM (inactive); in the assay with SNB-75 it was > 42.8 µM (inactive); with NCI-H460 it was > 36.1 µM (inactive); in the assay on HCT-116 it was 39.8 µM (inactive); with CCRF-CEM it was 19.8 µM (inactive); with OVCAR-3 it was > 51.1 µM (inactive). The GI50 in the assay on MCF7 was 30.2 µM (inactive); with M14, > 46.8 µM (inactive); in the assay on K562, 26.5 µM (inactive); with OVCAR-8, 29.2 µM (inactive); with SR, 34.4 µM (inactive); in the assay on NCI-H23 it was > 76.7 µM (inactive). Besides, the GI50 in the assay with SK-MEL-28 is > 41.7 µM (inactive).
Consider `COc1ccccc1[C@@H]1CCC2CC[C@@H](c3ccccc3OC)[N+]21Cc1ccccc1` (some centres undefined), for which the GI50 was 1.83 µM (inactive) with MOLT-4; 2.84 µM (inactive) in the assay with SK-OV-3; 2.3 µM (inactive) in the assay on Malme-3M; 2.28 µM (inactive) with DU-145; 0.44 µM (active) in the assay on COLO 205; 2.25 µM (inactive) in the assay with A498. Also, the GI50 with LOX IMVI is 1.69 µM (inactive); in the assay with SNB-75 it was 2.15 µM (inactive); in the assay with HCT-116 it was 1.6 µM (inactive); in the assay with CCRF-CEM, 1.73 µM (inactive); with OVCAR-3, 0.887 µM (active); with MCF7, 0.581 µM (active). Also, the GI50 in the assay on M14 is 2.24 µM (inactive); with K562 it was 0.344 µM (active); with OVCAR-8, 1.27 µM (inactive); in the assay with SR it was 1.03 µM (active); with NCI-H23, 0.948 µM (active); with SK-MEL-28, 3.56 µM (inactive).
`CC1=NN(c2ccc(C)cc2)C2(C1)SCC(=O)N2c1nc2ccccc2s1` (centres undefined): the GI50 with MOLT-4 was 9.66 µM (inactive); in the assay with SK-OV-3, 22.1 µM (inactive); in the assay on Malme-3M, 23.5 µM (inactive); with DU-145, 29.5 µM (inactive); with COLO 205, 22.7 µM (inactive); in the assay with A498, 19.6 µM (inactive). In addition, the GI50 in the assay with LOX IMVI is 19.6 µM (inactive); with SNB-75, 16.1 µM (inactive); with NCI-H460 it was 13.4 µM (inactive); in the assay with HCT-116, 17.8 µM (inactive); with CCRF-CEM it was 5.22 µM (inactive); with OVCAR-3, 12.2 µM (inactive). The GI50 with MCF7 was 4.7 µM (inactive); in the assay on M14 it was 22.7 µM (inactive); in the assay on K562, 24.2 µM (inactive); in the assay with OVCAR-8, 31.6 µM (inactive); with SR, 7.11 µM (inactive); in the assay with NCI-H23 it was 24 µM (inactive). Also, in the assay on SK-MEL-28, the GI50 is 24.2 µM (inactive).
For the compound `O=C(O)C1C2C=CC(O2)C1C(=O)NCc1ccncc1` (centres undefined), the GI50 in the assay with SK-OV-3, in the assay with Malme-3M, with DU-145, in the assay with COLO 205, in the assay on A498 and with LOX IMVI was > 100 µM (inactive) in each case. Moreover, the GI50 in the assay on SNB-75 was > 100 µM (inactive); in the assay on NCI-H460, > 100 µM (inactive); in the assay on HCT-116 it was > 100 µM (inactive); in the assay on CCRF-CEM, > 100 µM (inactive); with OVCAR-3, 33.7 µM (inactive); with MCF7 it was > 100 µM (inactive). For the same compound, the GI50 in the assay on M14, in the assay with K562, with OVCAR-8, in the assay on SR and in the assay with SK-MEL-28 was > 100 µM (inactive) each time.
As to `NCCOCC(N)C(=O)O` (centres undefined), the GI50 with MOLT-4, in the assay with SK-OV-3, in the assay with Malme-3M, in the assay on DU-145, in the assay on COLO 205 and in the assay with A498 was > 100 µM (inactive) each time. For the same compound, the GI50 in the assay on LOX IMVI was > 100 µM (inactive) and > 77.4 µM (inactive); in the assay on SNB-75, > 100 µM (inactive); with NCI-H460, > 100 µM (inactive); in the assay with HCT-116, > 100 µM (inactive); in the assay with CCRF-CEM it was > 100 µM (inactive) and > 72.8 µM (inactive); in the assay with OVCAR-3, > 100 µM (inactive). In addition, the GI50 in the assay on MCF7 is > 100 µM (inactive); with M14, > 100 µM (inactive); in the assay with K562 it was > 100 µM (inactive); with OVCAR-8, > 100 µM (inactive); in the assay on SR, > 100 µM (inactive) and 54.8 µM (inactive); with NCI-H23, > 100 µM (inactive). The GI50 with SK-MEL-28 is > 100 µM (inactive).
In the case of `NC1=C(c2nc(-c3ccccc3)cs2)C(c2ccco2)c2c(c3ccccc3oc2=O)O1` (centres undefined), the GI50 with SK-OV-3, in the assay with Malme-3M, with DU-145, in the assay with COLO 205, in the assay on A498 and in the assay on LOX IMVI was > 100 µM (inactive) in each case. Further, the GI50 with SNB-75, with NCI-H460, in the assay with HCT-116, with CCRF-CEM, in the assay on OVCAR-3 and in the assay with MCF7 was > 100 µM (inactive) throughout. Also, the GI50 in the assay on M14, in the assay on K562, in the assay with OVCAR-8, in the assay on SR, in the assay on NCI-H23 and with SK-MEL-28 was > 100 µM (inactive) throughout.
As for `CN(C)CC1=Nc2cccc3cccc(c23)N1`, the GI50 in the assay on SK-OV-3 is > 100 µM (inactive); in the assay with Malme-3M, 22 µM (inactive); with DU-145 it was 17.1 µM (inactive); in the assay with COLO 205, 2.95 µM (inactive); in the assay on A498, 14.9 µM (inactive); with LOX IMVI, 19.4 µM (inactive). The GI50 is 16.7 µM (inactive) in the assay with SNB-75; 34.3 µM (inactive) in the assay with NCI-H460; 8.15 µM (inactive) with HCT-116; 0.235 µM (active) with CCRF-CEM; 16.4 µM (inactive) in the assay with OVCAR-3; 13.1 µM (inactive) with MCF7. Further, the GI50 in the assay on M14 was 19.5 µM (inactive); in the assay on K562, 16.7 µM (inactive); in the assay on OVCAR-8, 33.8 µM (inactive); in the assay with SR, 17.9 µM (inactive); in the assay with NCI-H23 it was 22.9 µM (inactive); in the assay on SK-MEL-28, 22.1 µM (inactive).
With `Cc1ncc([N+](=O)[O-])n1CCNC(=O)CCCn1cnc([N+](=O)[O-])n1`, the GI50 with MOLT-4 was > 100 µM (inactive); with SK-OV-3, > 100 µM (inactive); in the assay on Malme-3M, > 100 µM (inactive); in the assay on DU-145 it was > 100 µM (inactive); in the assay with COLO 205, > 100 µM (inactive); in the assay with A498 it was > 84.3 µM (inactive). For the same compound, the GI50 with LOX IMVI was > 100 µM (inactive); in the assay on SNB-75 it was 98.6 µM (inactive); in the assay on NCI-H460, > 100 µM (inactive); in the assay with HCT-116, > 100 µM (inactive); with CCRF-CEM, > 100 µM (inactive); with OVCAR-3, > 100 µM (inactive). Further, the GI50 is > 100 µM (inactive) in the assay on MCF7; > 100 µM (inactive) in the assay on M14; > 100 µM (inactive) in the assay with K562; > 95.9 µM (inactive) in the assay with OVCAR-8; > 100 µM (inactive) with SR; > 100 µM (inactive) in the assay with NCI-H23. Also, the GI50 in the assay on SK-MEL-28 was > 100 µM (inactive).
For `Oc1cc2c3c(c1)c1cc4c(cc1c[n+]3CC2)OCO4`, the GI50 in the assay on MOLT-4 was 0.242 µM (active); in the assay with SK-OV-3, 16.1 µM (inactive); with Malme-3M, 1.16 µM (inactive); in the assay with DU-145, 3.23 µM (inactive); in the assay on COLO 205, 3.73 µM (inactive); in the assay with A498, 35.4 µM (inactive). Moreover, the GI50 is 1.63 µM (inactive) with LOX IMVI; 2.25 µM (inactive) in the assay with SNB-75; 2.43 µM (inactive) with NCI-H460; 1.55 µM (inactive) in the assay with HCT-116; 2.84 µM (inactive) in the assay on CCRF-CEM; 4.88 µM (inactive) in the assay on OVCAR-3. Further, the GI50 in the assay with MCF7 is 7.69 µM (inactive); in the assay on M14, 32.1 µM (inactive); in the assay with K562 it was 1.57 µM (inactive); with OVCAR-8 it was 0.748 µM (active); in the assay on SR it was 0.671 µM (active); in the assay with NCI-H23, 1.9 µM (inactive). The GI50 with SK-MEL-28 is 7.82 µM (inactive).
